In article PMC5833849, “Sensitizing tumor cells to conventional drugs: HSP70 chaperone inhibitors, their selection and application in cancer models” (Cell Death & Disease, 2018):
Like-named read-outs stand apart in the source and are kept apart here.

What was measured:
Hsp70 [1] = biological target: T1, Hsp70 (Homo sapiens, UniProt P0DMV8); test: inhibition of Hsp70 binding to carboxymethylated lactalbumin ([…] at […]); luciferase refolding ([…] at […]); type: biochemical
T1 construct: gene HSPA1A; Recombinant human Hsp70

Hsp70 [2] = biological target: T1, Hsp70; test: microscale thermophoresis (also DARTS; inhibition of substrate binding and luciferase refolding by Hsp70)
Hsp70 [3] = biological target: T1, Hsp70; test: inhibition of Hsp70 binding to carboxymethylated lactalbumin ([…] at […]); luciferase refolding ([…] at […]); type: biochemical; remark: listed apart in the source

T1 sequence (P0DMV8 2-641): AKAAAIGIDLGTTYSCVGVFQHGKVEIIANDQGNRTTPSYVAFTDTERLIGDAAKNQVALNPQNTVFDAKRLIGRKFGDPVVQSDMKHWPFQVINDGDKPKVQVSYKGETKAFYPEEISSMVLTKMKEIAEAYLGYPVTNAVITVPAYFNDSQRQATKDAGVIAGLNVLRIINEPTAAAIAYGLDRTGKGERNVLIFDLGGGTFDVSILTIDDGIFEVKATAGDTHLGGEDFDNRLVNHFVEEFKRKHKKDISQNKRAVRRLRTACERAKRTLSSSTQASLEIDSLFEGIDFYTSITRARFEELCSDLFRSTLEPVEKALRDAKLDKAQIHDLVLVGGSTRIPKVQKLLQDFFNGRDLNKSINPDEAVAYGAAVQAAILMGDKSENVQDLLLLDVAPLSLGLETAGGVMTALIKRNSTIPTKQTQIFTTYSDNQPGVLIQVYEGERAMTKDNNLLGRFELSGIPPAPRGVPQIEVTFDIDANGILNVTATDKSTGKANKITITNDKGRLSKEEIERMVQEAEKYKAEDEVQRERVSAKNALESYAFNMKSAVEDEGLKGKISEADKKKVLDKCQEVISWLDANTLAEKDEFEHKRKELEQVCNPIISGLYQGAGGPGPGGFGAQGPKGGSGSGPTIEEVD

Structure (SMILES): CCn1c(=Cc2cccc[n+]2CC)sc(=C2Sc3ccccc3N2C)c1=O [MKT-077]
- inhibition at 1 µM (Hsp70 [1]): 27%

Structure (SMILES): COc1cc2c(c(OC)c1OC)-c1ccc(NCCN)c(=O)cc1[C@@H](NC(C)=O)CC2 [AEAC]
- Kd (Hsp70 [2]): 149 ± 49.6 nM

Structure (SMILES): N#Cc1ccc(COC[C@H]2O[C@@H](n3c(NCc4ccc(Cl)c(Cl)c4)nc4c(N)ncnc43)[C@H](O)[C@@H]2O)cc1 [VER-155008]
- inhibition at 1 µM (Hsp70 [3]): 19%
